# Reference: publication PMC4604124, “In Vitro Characterization of the Pharmacological Properties of the Anti-Cancer Chelator, Bp4eT, and Its Phase I Metabolites” (PLoS ONE, 2015)
# “And” between values parts separate entries of the source, which are not always exact repeats. Identical values can stand only once. Like-named read-outs stand apart in the source and are kept apart here.
# Key:
# [1] = test system: MCF-7 cells prelabeled with 59Fe2-transferrin; experiment: Mobilization (efflux) of cellular 59Fe; format: cell-based, human; set-up: Efflux 59Fe / Efflux 59Fe, Ave: unit not given here
# Method in brief: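 Confluent MCF-7 cells prelabeled with 0.75 μM 59Fe2-Tf for 3 h at 37 °C, washed, then exposed to 25 μM compound for 3 h at 37 °C. 59Fe in cells and medium counted by γ-scintillation to give released fraction.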
# caspases 3/7 = experiment: Caspase activity, luminescent kit, caspases 3/7; format: cell-based, human; details: for kaspáza (3) a 7, raw signal / kaspáza (3) a 7, signal / viabilita: individual experiments by date; for kaspáza (3) a 7, raw signal, průměry / kaspáza (3) a 7, % kontroly / kaspáza (3) a 7, signal / viabilita, průměry: mean; for kaspáza (3) a 7, % kontroly / kaspáza (3) a 7, signal / viabilita / kaspáza (3) a 7, signal / viabilita, průměry: normalised to viability
# [2] = test system: MCF-7 human breast adenocarcinoma cells; experiment: MTT cytotoxicity assay, MCF-7 cells; format: cell-based; details: for IC50: MTT, read-out: IC50
# Method in brief: (§1)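 Cells were seeded 24 h at 37°C (MCF-7 5,000, HCT116 and A549 2,000, H9c2 10,000 cells/well; H9c2 then given serum- and pyruvate-free DMEM for 24 h) and exposed to compounds for 72 h in medium with 0.1% DMSO. MTT absorbance was read at 570 nm minus 690 nm; IC50 came from viability relative to untreated controls.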
# MCF-7 cells = experiment: Cell cycle analysis by flow cytometry (propidium iodide); format: cell-based, human; details: 0.1 μM, 72 h, control 33%
# Experimental: To examine the effect of the agents on the cell cycle, MCF-7 cells were seeded in 60 mm Petri dishes at a density of 240,000 cells/dish and incubated with Bp4eT or its metabolites for 72 h/37°C. The cells were then harvested, fixed by ethanol and stained by propidium iodide (Molecular Probes, Eugene, OR, USA) for 30 min/37°C, as described previously. Cells were analyzed using Accuri C6 flow cytometer (Becton Dickinson and Company, San Jose, CA USA). Propidium iodide was excited at λex = 488 nm and fluorescence analyzed at λem = 585 nm (FL-2) with a total of 10,000 events collected per analysis.
# SigmaStat for Windows 3.5 (Systat Software, San Jose, CA, USA) statistical software package was utilized to analyze results. The data are expressed as the mean ± SD of a given number of experiments. Statistical significance was determined using a one-way ANOVA with a Bonferroni post-hoc test or Student’s t-test. The results were considered to be statistically significant when p < 0.05. The IC50 values were calculated using CalcuSyn 2.0 software (Biosoft, Cambridge, UK). Cell cycle analysis was evaluated using MultiCycle AV Software (Phoenix Flow Systems, San Diego, CA, USA).
# [3] = test system: A549 human lung adenocarcinoma cells; experiment: MTT cytotoxicity assay, A549 cells; format: cell-based; details: for IC50: MTT
# Method in brief: as §1
structure (smiles),measurement,setting,value
"CCNC(=O)NN=C(c1ccccc1)c1ccccn1 [E-Bp4eS, 2-benzoylpyridine 4-ethylsemicarbazone]","Efflux 59Fe, Ave",[1]; average of all replicates,3.661
same,Efflux 59Fe,[1]; single replicate (three per date),4.9211 and 3.6997 and 3.3917 and 3.5987 and 3.8929 and 3.2529 and 3.6068 and 3.4574 and 3.1235
same,"kaspáza (3) a 7, raw signal",caspases 3/7; 3 hodiny,2046.5 and 1555.5 and 1698 and 1596
same,"kaspáza (3) a 7, raw signal, průměry",caspases 3/7; 3 hodiny,1724
same,"kaspáza (3) a 7, % kontroly",caspases 3/7; 3 hodiny,106.30 % kontroly
same,"kaspáza (3) a 7, signal / viabilita",caspases 3/7; 3 hodiny,20.8429 and 15.8422 and 17.2935 and 16.2547
same,"kaspáza (3) a 7, signal / viabilita, průměry",caspases 3/7; 3 hodiny,17.5583
same,"kaspáza (3) a 7, raw signal",caspases 3/7; 24 hodin,2362.5 and 2475 and 2765.5 and 2572
same,"kaspáza (3) a 7, raw signal, průměry",caspases 3/7; 24 hodin,2543.75
same,"kaspáza (3) a 7, % kontroly",caspases 3/7; 24 hodin,112.45 % kontroly
same,"kaspáza (3) a 7, signal / viabilita",caspases 3/7; 24 hodin,23.7515 and 24.8825 and 27.8031 and 25.8577
same,"kaspáza (3) a 7, signal / viabilita, průměry",caspases 3/7; 24 hodin,25.5737
same,"kaspáza (3) a 7, raw signal",caspases 3/7; 72 hodin,7302.5 and 8023 and 7227 and 8569
same,"kaspáza (3) a 7, raw signal, průměry",caspases 3/7; 72 hodin,7780.38
same,"kaspáza (3) a 7, % kontroly",caspases 3/7; 72 hodin,107.49 % kontroly
same,"kaspáza (3) a 7, signal / viabilita",caspases 3/7; 72 hodin,74.6601 and 82.0264 and 73.8882 and 87.6086
same,"kaspáza (3) a 7, signal / viabilita, průměry",caspases 3/7; 72 hodin,79.5458
same,"Therapeutic index, IC50 non-cancerous cells / IC50 neoplastic cells",[2]; 3T3/MCF-7,>4.8
same,"Therapeutic index, IC50 non-cancerous cells / IC50 neoplastic cells",[2]; H9c2/MCF-7,4.2
same,IC50,"[2]; Homo sapiens, MCF7, 72 h, MCF-7, 72 h/37°C, mean ± SD, n ≥ 4",208 ± 43.9 µM
same,IC50,"[2]; Homo sapiens, MCF7, MCF-7, 5 000 b/j, průměr (mean)",209 µM
same,IC50,"[2]; Homo sapiens, MCF7, MCF-7, 5 000 b/j, single experiment (by date)",194 µM
same,IC50,"[2]; MCF-7, 5 000 b/j, single experiment (by date)",169 µM and 199 µM and 271 µM
same,"MTT, value relative to 0 μM = 100","[2]; MCF-7, 5 000 b/j, koncentrace 1 μM, průměr (mean)",97.81
same,"MTT, value relative to 0 μM = 100","[2]; MCF-7, 5 000 b/j, koncentrace 1 μM, single experiment (by date)",92.729 and 97.0185 and 91.1778 and 97.3834 and 110.755
same,"MTT, value relative to 0 μM = 100","[2]; MCF-7, 5 000 b/j, koncentrace 3 μM, průměr (mean)",98.68
same,"MTT, value relative to 0 μM = 100","[2]; MCF-7, 5 000 b/j, koncentrace 3 μM, single experiment (by date)",98.4078 and 88.0788 and 100.293 and 107.936
same,"MTT, value relative to 0 μM = 100","[2]; MCF-7, 5 000 b/j, koncentrace 10 μM, průměr (mean)",97.39
same,"MTT, value relative to 0 μM = 100","[2]; MCF-7, 5 000 b/j, koncentrace 10 μM, single experiment (by date)",92.0003 and 97.1637 and 90.3424 and 98.5326 and 108.927
same,"MTT, value relative to 0 μM = 100","[2]; MCF-7, 5 000 b/j, koncentrace 30 μM, průměr (mean)",96.90
same,"MTT, value relative to 0 μM = 100","[2]; MCF-7, 5 000 b/j, koncentrace 30 μM, single experiment (by date)",97.756 and 80.695 and 97.8856 and 111.258
same,"MTT, value relative to 0 μM = 100","[2]; MCF-7, 5 000 b/j, koncentrace 100 μM, průměr (mean)",90.08
same,"MTT, value relative to 0 μM = 100","[2]; MCF-7, 5 000 b/j, koncentrace 100 μM, single experiment (by date)",88.6813 and 85.2546 and 75.1399 and 92.8747 and 108.447
same,"MTT, value relative to 0 μM = 100","[2]; MCF-7, 5 000 b/j, koncentrace 300 μM, průměr (mean)",23.35
same,"MTT, value relative to 0 μM = 100","[2]; MCF-7, 5 000 b/j, koncentrace 300 μM, single experiment (by date)",24.0916 and 23.1141 and 17.816 and 28.3884
same,"MTT, value relative to 0 μM = 100","[2]; MCF-7, 5 000 b/j, koncentrace 1000 μM, průměr (mean)",23.56
same,"MTT, value relative to 0 μM = 100","[2]; MCF-7, 5 000 b/j, koncentrace 1000 μM, single experiment (by date)",23.4887 and 24.7991 and 25.8548 and 20.0906
same,Percentage of cells in the G2/M phase,MCF-7 cells,"slight, but significant (p < 0.01–0.05) decrease"
same,"Therapeutic index, IC50 non-cancerous cells / IC50 neoplastic cells",[3]; 3T3/A549,>4.0
same,IC50,"[3]; A549, 72 h/37°C, mean ± SD, n ≥ 4",248 ± 28.4 µM
same,"MTT, relative to control (0 = 100)","[3]; A549, 2 000 b/j, 1 μM, průměr (mean), sheet E-Bp4eS",93.23
same,"MTT, relative to control (0 = 100)","[3]; A549, 2 000 b/j, 1 μM, single experiment (date), sheet E-Bp4eS",97.4794 and 93.8067 and 89.4519 and 90.2593 and 95.1529
same,"MTT, relative to control (0 = 100)","[3]; A549, 2 000 b/j, 3 μM, průměr (mean), sheet E-Bp4eS",94.11
same,"MTT, relative to control (0 = 100)","[3]; A549, 2 000 b/j, 3 μM, single experiment (date), sheet E-Bp4eS",94.6678 and 89.857 and 93.9888 and 97.9391
same,"MTT, relative to control (0 = 100)","[3]; A549, 2 000 b/j, 10 μM, průměr (mean), sheet E-Bp4eS",92.21
same,"MTT, relative to control (0 = 100)","[3]; A549, 2 000 b/j, 10 μM, single experiment (date), sheet E-Bp4eS",87.4036 and 92.1017 and 93.2476 and 93.9742 and 94.3384
same,"MTT, relative to control (0 = 100)","[3]; A549, 2 000 b/j, 30 μM, průměr (mean), sheet E-Bp4eS",90.64
same,"MTT, relative to control (0 = 100)","[3]; A549, 2 000 b/j, 30 μM, single experiment (date), sheet E-Bp4eS",90.1965 and 95.4707 and 85.9691 and 88.5685 and 92.9924
same,"MTT, relative to control (0 = 100)","[3]; A549, 2 000 b/j, 100 μM, průměr (mean), sheet E-Bp4eS",73.00
same,"MTT, relative to control (0 = 100)","[3]; A549, 2 000 b/j, 100 μM, single experiment (date), sheet E-Bp4eS",74.3256 and 77.7533 and 70.4536 and 74.7606 and 67.6889
same,"MTT, relative to control (0 = 100)","[3]; A549, 2 000 b/j, 300 μM, průměr (mean), sheet E-Bp4eS",38.58
same,"MTT, relative to control (0 = 100)","[3]; A549, 2 000 b/j, 300 μM, single experiment (date), sheet E-Bp4eS",29.8381 and 26.5697 and 49.6192 and 42.8896 and 44.0078
same,"MTT, relative to control (0 = 100)","[3]; A549, 2 000 b/j, 1000 μM, průměr (mean), sheet E-Bp4eS",20.68
same,"MTT, relative to control (0 = 100)","[3]; A549, 2 000 b/j, 1000 μM, single experiment (date), sheet E-Bp4eS",19.2379 and 16.653 and 18.6303 and 21.7843 and 27.0728
same,IC50,"[3]; A549, 2 000 b/j, single experiment (date), sheet E-Bp4eS",234 µM and 239 µM and 259 µM and 291 µM
same,"Therapeutic index, IC50 non-cancerous cells / IC50 neoplastic cells",[3]; H9c2/A549,3.6
same,IC50,"[3]; Homo sapiens, A549, A549, 2 000 b/j, single experiment (date), sheet E-Bp4eS",217 µM
